In PubChem BioAssay (NCI):
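Assay format: 96-well plates, 48-hour exposure. The concentration for 50% growth inhibition is given as GI50. TGI: concentration producing complete growth inhibition.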

Tests used:
Assay in all cases: NCI tumour cell line growth inhibition, 48 h
786-0 renal = tested on: 786-0 renal
A498 renal = tested on: A498 renal
A549 NSCLC = tested on: A549 NSCLC
ACHN renal = tested on: ACHN renal
BT-549 breast = tested on: BT-549 breast
CAKI-1 renal = tested on: CAKI-1 renal
COLO 205 colon = tested on: COLO 205 colon
DU-145 prostate = tested on: DU-145 prostate
EKVX NSCLC = tested on: EKVX NSCLC
HCC-2998 colon = tested on: HCC-2998 colon
HCT-116 colon = tested on: HCT-116 colon
HCT-15 colon = tested on: HCT-15 colon
HL-60(TB) leukemia = tested on: HL-60(TB) leukemia
HOP-62 NSCLC = tested on: HOP-62 NSCLC
HOP-92 NSCLC = tested on: HOP-92 NSCLC
HS 578T breast = tested on: HS 578T breast
HT29 colon = tested on: HT29 colon
IGROV1 ovarian = tested on: IGROV1 ovarian
K-562 leukemia = tested on: K-562 leukemia
KM12 colon = tested on: KM12 colon
LOX IMVI melanoma = tested on: LOX IMVI melanoma
M14 melanoma = tested on: M14 melanoma
MALME-3M melanoma = tested on: MALME-3M melanoma
MCF7 breast = tested on: MCF7 breast
MDA-MB-231 breast = tested on: MDA-MB-231 breast
MDA-MB-435 = tested on: MDA-MB-435
MOLT-4 leukemia = tested on: MOLT-4 leukemia
NCI-H226 lung = tested on: NCI-H226 lung
NCI-H23 lung = tested on: NCI-H23 lung
NCI-H460 lung = tested on: NCI-H460 lung
NCI-H522 lung = tested on: NCI-H522 lung
NCI/ADR-RES ovarian = tested on: NCI/ADR-RES ovarian
OVCAR-3 ovarian = tested on: OVCAR-3 ovarian
OVCAR-4 ovarian = tested on: OVCAR-4 ovarian
OVCAR-5 ovarian = tested on: OVCAR-5 ovarian
OVCAR-8 ovarian = tested on: OVCAR-8 ovarian
PC-3 prostate = tested on: PC-3 prostate
RPMI-8226 leukemia = tested on: RPMI-8226 leukemia
RXF 393 renal = tested on: RXF 393 renal
SF-268 CNS = tested on: SF-268 CNS
SF-295 CNS = tested on: SF-295 CNS
SF-539 CNS = tested on: SF-539 CNS
SK-MEL-2 melanoma = tested on: SK-MEL-2 melanoma
SK-MEL-28 melanoma = tested on: SK-MEL-28 melanoma
SK-MEL-5 melanoma = tested on: SK-MEL-5 melanoma
SK-OV-3 ovarian = tested on: SK-OV-3 ovarian
SNB-19 CNS = tested on: SNB-19 CNS
SNB-75 CNS = tested on: SNB-75 CNS
SR leukemia = tested on: SR leukemia
SW-620 colon = tested on: SW-620 colon
TK-10 renal = tested on: TK-10 renal
U251 CNS = tested on: U251 CNS
UACC-257 melanoma = tested on: UACC-257 melanoma
UACC-62 melanoma = tested on: UACC-62 melanoma
UO-31 renal = tested on: UO-31 renal

Cc1ccc(/C=C/c2c(C(=O)/C=C/c3ccc(Cl)cc3)c(C)nc3ccccc23)cc1
GI50 (786-0 renal): 1.6 µM
TGI (786-0 renal): 3.2 µM
GI50 (A498 renal): 1.77 µM
TGI (A498 renal): 3.28 µM
GI50 (A549 NSCLC): 2.45 µM
TGI (A549 NSCLC): 6.85 µM
GI50 (ACHN renal): 1.54 µM
TGI (ACHN renal): 2.88 µM
GI50 (BT-549 breast): 1.4 µM
TGI (BT-549 breast): 2.93 µM
GI50 (CAKI-1 renal): 1.27 µM
TGI (CAKI-1 renal): 2.74 µM
GI50 (COLO 205 colon): 2.17 µM
TGI (COLO 205 colon): 5.46 µM
GI50 (DU-145 prostate): 1.74 µM
TGI (DU-145 prostate): 3.27 µM
GI50 (EKVX NSCLC): 1.86 µM
TGI (EKVX NSCLC): 4.53 µM
GI50 (HCC-2998 colon): 1.49 µM
TGI (HCC-2998 colon): 2.96 µM
GI50 (HCT-116 colon): 0.526 µM
TGI (HCT-116 colon): 2.02 µM
GI50 (HCT-15 colon): 1.45 µM
TGI (HCT-15 colon): 3.97 µM
GI50 (HL-60(TB) leukemia): 2.12 µM
TGI (HL-60(TB) leukemia): 5.76 µM
GI50 (HOP-62 NSCLC): 2.15 µM
TGI (HOP-62 NSCLC): 4.68 µM
GI50 (HOP-92 NSCLC): 1.62 µM
TGI (HOP-92 NSCLC): 3.53 µM
GI50 (HS 578T breast): 2.75 µM
TGI (HS 578T breast): 8.66 µM
GI50 (HT29 colon): 2.05 µM
TGI (HT29 colon): 14.9 µM
GI50 (IGROV1 ovarian): 1.03 µM
TGI (IGROV1 ovarian): 2.38 µM
GI50 (K-562 leukemia): 2.63 µM
TGI (K-562 leukemia): > 100 µM
GI50 (KM12 colon): 1.87 µM
TGI (KM12 colon): 3.77 µM
GI50 (LOX IMVI melanoma): 1.53 µM
TGI (LOX IMVI melanoma): 2.87 µM
GI50 (M14 melanoma): 1.64 µM
TGI (M14 melanoma): 3.4 µM
GI50 (MALME-3M melanoma): 1.74 µM
TGI (MALME-3M melanoma): 3.17 µM
GI50 (MCF7 breast): 1.58 µM
TGI (MCF7 breast): 4.95 µM
GI50 (MDA-MB-231 breast): 1.77 µM
TGI (MDA-MB-231 breast): 3.68 µM
GI50 (MDA-MB-435): 2.05 µM
TGI (MDA-MB-435): 4.22 µM
GI50 (MOLT-4 leukemia): 2.18 µM
TGI (MOLT-4 leukemia): > 100 µM
GI50 (NCI-H226 lung): 1.92 µM
TGI (NCI-H226 lung): 3.92 µM
GI50 (NCI-H23 lung): 1.38 µM
TGI (NCI-H23 lung): 3.22 µM
GI50 (NCI-H460 lung): 1.73 µM
TGI (NCI-H460 lung): 3.49 µM
GI50 (NCI-H522 lung): 1.86 µM
TGI (NCI-H522 lung): 5.94 µM
GI50 (NCI/ADR-RES ovarian): 1.99 µM
TGI (NCI/ADR-RES ovarian): 4.45 µM
GI50 (OVCAR-3 ovarian): 1.84 µM
TGI (OVCAR-3 ovarian): 3.51 µM
GI50 (OVCAR-4 ovarian): 3.97 µM
TGI (OVCAR-4 ovarian): 17.9 µM
GI50 (OVCAR-5 ovarian): 2.16 µM
TGI (OVCAR-5 ovarian): 5.86 µM
GI50 (OVCAR-8 ovarian): 2.17 µM
TGI (OVCAR-8 ovarian): 6.46 µM
GI50 (PC-3 prostate): 2.2 µM
TGI (PC-3 prostate): 6.42 µM
GI50 (RPMI-8226 leukemia): 2.13 µM
TGI (RPMI-8226 leukemia): 5.95 µM
GI50 (RXF 393 renal): 1.79 µM
TGI (RXF 393 renal): 3.45 µM
GI50 (SF-268 CNS): 2.15 µM
TGI (SF-268 CNS): 5.85 µM
GI50 (SF-295 CNS): 1.74 µM
TGI (SF-295 CNS): 3.23 µM
GI50 (SF-539 CNS): 1.81 µM
TGI (SF-539 CNS): 3.3 µM
GI50 (SK-MEL-2 melanoma): 2.01 µM
TGI (SK-MEL-2 melanoma): 4.96 µM
GI50 (SK-MEL-28 melanoma): 1.84 µM
TGI (SK-MEL-28 melanoma): 3.41 µM
GI50 (SK-MEL-5 melanoma): 1.62 µM
TGI (SK-MEL-5 melanoma): 3 µM
GI50 (SK-OV-3 ovarian): 3.74 µM
TGI (SK-OV-3 ovarian): 15.7 µM
GI50 (SNB-19 CNS): 1.75 µM
TGI (SNB-19 CNS): 3.28 µM
GI50 (SNB-75 CNS): 1.51 µM
TGI (SNB-75 CNS): 3.24 µM
GI50 (SR leukemia): 1.92 µM
TGI (SR leukemia): > 100 µM
GI50 (SW-620 colon): 1.9 µM
TGI (SW-620 colon): 5.11 µM
GI50 (TK-10 renal): 2.53 µM
TGI (TK-10 renal): 4.84 µM
GI50 (U251 CNS): 1.7 µM
TGI (U251 CNS): 3.38 µM
GI50 (UACC-257 melanoma): 2.15 µM
TGI (UACC-257 melanoma): 4.8 µM
GI50 (UACC-62 melanoma): 1.75 µM
TGI (UACC-62 melanoma): 3.72 µM
GI50 (UO-31 renal): 1.16 µM
TGI (UO-31 renal): 2.38 µM
